Measurements reported in patent publication US7572819B2, “Compounds which potentiate glutamate receptor and uses thereof in medicine” (Glaxo Group Limited, priority 2004, dated 2009).

Target: T1, human GluR2 flip (unedited) AMPA receptor subunit (Homo sapiens, UniProt P42262)
T1 construct: expressed in transfected cells; host or cells: HEK 293 cells, stably expressing or transiently transfected
Assay: Calcium influx fluorescence assay (FLUO4, FLIPR)
Type: cell-based
Settings: HEK 293 cells expressing human GluR2 flip (unedited); 100 μM glutamate; peak fluorescence
Method: The ability of the compounds of the invention to potentiate glutamate receptor-mediated response were determined a) by using fluorescent calcium-indicator dyes such as FLUO4 and additionally for some example compounds, b) by measuring glutamate-evoked current recorded from human GluR2 flip unedited HEK293 cells. • a) Calcium Influx Fluorescence Assay
384 well plates were prepared containing confluent monolayer of HEK 293 cells either stably expressing or transiently transfected with human GluR2 flip (unedited) AMPA receptor subunit. These cells form functional homotetrameric AMPA receptors. […]
The cell plate was then transferred into a fluorescence imaging plate based reader [such as the FLIPR384 (Molecular Devices)]. A baseline fluorescence reading was taken over a 10 to 240 second period, and then 10 μL from each plate containing a compound of the invention made up in standard buffer solution (in a concentration range from 100 μM to 10 pM) was added (to give a final concentration in the range 30 μM to 3 pM). The fluorescence was read over 5 minute period. […] The fluoresecence was then read over a 4 minute period. The activities of the compounds of the invention and reference compounds were determined by measuring peak fluorescence after the last addition. […]

T1 sequence (P42262 25-883 isoform P42262-2 limits assumed): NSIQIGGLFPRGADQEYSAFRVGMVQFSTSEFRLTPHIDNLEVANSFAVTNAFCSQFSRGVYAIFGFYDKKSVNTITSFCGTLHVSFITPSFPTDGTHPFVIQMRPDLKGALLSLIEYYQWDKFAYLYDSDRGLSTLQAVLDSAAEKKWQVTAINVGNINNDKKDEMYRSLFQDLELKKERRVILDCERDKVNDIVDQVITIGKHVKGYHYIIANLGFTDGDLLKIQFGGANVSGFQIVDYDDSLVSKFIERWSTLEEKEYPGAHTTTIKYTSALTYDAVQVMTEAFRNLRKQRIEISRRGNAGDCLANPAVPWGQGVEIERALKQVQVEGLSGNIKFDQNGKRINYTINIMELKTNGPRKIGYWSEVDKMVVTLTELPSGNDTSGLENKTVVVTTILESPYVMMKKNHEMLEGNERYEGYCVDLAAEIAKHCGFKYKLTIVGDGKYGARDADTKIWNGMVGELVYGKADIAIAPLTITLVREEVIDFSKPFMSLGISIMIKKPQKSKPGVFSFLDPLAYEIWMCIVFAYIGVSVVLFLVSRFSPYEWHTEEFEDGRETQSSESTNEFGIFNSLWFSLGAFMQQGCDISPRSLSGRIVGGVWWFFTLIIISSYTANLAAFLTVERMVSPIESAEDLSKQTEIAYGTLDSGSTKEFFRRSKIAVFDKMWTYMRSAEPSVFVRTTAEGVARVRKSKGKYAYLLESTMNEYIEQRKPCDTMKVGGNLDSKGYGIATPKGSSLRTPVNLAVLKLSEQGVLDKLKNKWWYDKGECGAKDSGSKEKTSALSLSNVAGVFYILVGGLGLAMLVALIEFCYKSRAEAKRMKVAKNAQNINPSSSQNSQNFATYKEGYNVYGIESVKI

With `CC(C)S(=O)(=O)NC1Cc2ccc(-c3ccsc3)cc2C1` (stereo not shown) [Example 4, N-[5-(3-thienyl)-2,3-dihydro-1H-inden-2-yl]-2-propanesulfonamide] as the compound, how does the EC50 read?
The EC50 was 10 µM.
